Laboratory results: US12514816B2, “Synergist therapy for enhanced drug delivery: magnetic field facilitated nanoparticle microporation” (Kansas State University Research Foundation, priority 2019, dated 2026)
Several values for one entry are separate records, joined by “and”; a condition that tells them apart may be missing. Identical values can stand only once. Like-named read-outs stand apart in the source and are kept apart here.

Assays:
[1] = test system: U-937 human cancer cell line
Experimental: No Magnetic Pulses: Effects of Cell Suspension Transfer, and Presence or Absence of Doxorubicin and Dex-FeNP upon Cell Death in U-937—The effects of cell suspension transfer to the 5 mm tube was investigated. U-937 cells (40,000 cells/well) were cultured in the presence or absence of Dex-FeNP (final concentration of 0.0025 mg/mL), and in the presence or absence of doxorubicin (at the determined IC50 in U-937), and then transferred to the 5-mm NMR tube. Samples were left at room temperature for the same time duration as samples treated to magnetic pulses. Samples were returned to cell culture plates and then incubated for 2 hours, and finally evaluated for cell death.
20 Magnetic Pulses: Effects of Presence or Absence of Doxorubicin and Dex-FeNP upon Cellular Death in U937—To explore the effects of microporation upon cell death through the application of magnetic pulses upon Dex-FeNP, the same experimental protocol as outlined above for no pulses was performed, but with the application of 20 magnetic pulses to the sample to induce increased drug uptake and enhanced accumulation. The total time required for this single set of 20 pulses is 5 microseconds. During the 5 microseconds, the field is applied constantly, but after this time no further pulses are applied.
50 Magnetic Pulses: Maximizing Cell Death with Magnetic Pulses—To maximize the combinational cell death in this strategy, the number of magnetic pulses was increased.
(§4) A suspension of U-937 or REH in RPMI-1640 medium (cell density of 40,000 cells/well) was added to each well of a 48-well plate, final volume of 0.8 mL, to which 0.2 mL of a pre-prepared solution of Dex-FeNP was added to achieve a final concentration of 0.025 mg/mL and allowed to incubate. For experiments in which no Dex-FeNP was employed, 0.2 mL of media was added in place of the nanoparticle solution. After 24 h, 2 μL of a 0.1 mM doxorubicin solution in DMSO was added to each well to achieve a 0.2 μM concentration. For experiments in which doxorubicin was not used, 0.2 μL of DMSO was added. The contents of each well were then transferred to a sterilized 5-mm NMR-tube. Samples are then placed within a magnetic field generating system and subjected to magnetic pulses. Sample not exposed to the magnetic fields are left within the NMR-tubes for the same time duration as samples treated with the magnet field. Each sample in their respective NMR-tubes were inverted to ensure homogeneity after which 0.7 mL was transferred back to their respective wells on the 48-well plate. NOTE: Only 0.7 mL was transferred to ensure constant volume within each well post-magnetic field application.

[2] = test system: U-937 (histiocytic lymphoma) human cancer cell line; experiment: cells; conditions: U-937, 48 h
From the text: (§5) To evaluate the proposed magnetic field facilitated nanoparticle induced microporation, U-937 (lymphoma cancerous suspension cell line) was selected. To investigate the possible toxicity effects of Dex-FeNP within U-937 cells, doxorubicin was used as an evaluation tool. Through the comparison of the IC50 of doxorubicin in U-937 cells relative to the IC50 of doxorubicin in the presence of various concentration of the Dex-FeNP allows for direct comparison of the effects that the Dex-FeNP have upon U-937 cells. In addition to the concentration of the Dex-FeNP, the effects of cell seeding density was also investigated in 384 and 48-well plates (4,000 and 40,000 cells/well, respectively).
(§6) To either 48 or 96 well plates was added doxorubicin (100 to 0.1 μM) in DMSO, Dex-FeNP (0.25 to 0 mg/mL), and U-937 or REH cells (4,000 cells/well and 40,000 cells/well, respectively) to final volumes of 50 and 700 μL. Samples were incubated for 48 h, cell viability was assessed by adding 5 and 70 μM of Alamar blue to each well, incubated for an additional 2 h, and fluorescence read. IC50 values were determined from three or more independent experiments using Prism by GraphPad.

[3] = test system: U-937 cells; experiment: Drug uptake within U-937 cells quantified via HPLC; assay type: cell-based, human; conditions: for increase of doxorubicin within cells (uptake), magnetic field pulses vs untreated: 20 magnetic field pulses, HPLC 1.5-2 h after administration
Experimental: Employing the same experimental conditions used for cellular death analysis, quantification of doxorubicin was achieved via HPLC. The protocol of this experiment differed from the cellular death analysis in that quantification of doxorubicin was performed 2 hours after administration, rather than 48 hours. Rationale for this is based upon the rapid translocation of doxorubicin into the nucleus where it elicits its therapeutic action.
(§1) After following the general procedures above, samples were incubated for 1.5 h. The cells were then transferred to an Eppendorf tube and centrifuged at 7,500 g for 5 mins, after which the suspension media was removed. The resulting cell pellet was washed with the addition of 0.7 mL of PBS and removed, twice. The cells were lysed with the addition of 0.35 mL of a lysis solution (EDTA, SDS, Tris HCl at pH 8.00), centrifuged at 20,000 gravity for 15 min to pellet large cellular debris, and the supernatant was removed and analyzed via HPLC for doxorubicin quantification.
(§2) Analysis was performed using a Shimadzu HPLC system with C18 analytical column maintained at 32° C. Mobile phases consisted of water-formic acid (999:1, v/v, phase A) and acetonitrile-formic acid (999:1, v/v, phase B) filtered through a membrane filter (0.2 μm) prior to use. A gradient program starting at A:B (85:15, v/v) and ending at A:B (50:50, v/v) was applied over 20 min at a flow rate of 0.35 mL/min. (A:B-85:15-2 min, A:B 50:50-3-8 min, A:B 85:15-9-20 min). The column effluent was monitored via 590 nm.
Employing the same procedure, cells were incubated with the magnetic nanoparticles, treated with dox in the absence and presence of the magnetic field and left to incubate. After 1.5 h, the cells were pelleted, washed twice with sterile PBS, lysed, centrifuged to removal large cellular debris, and then analyzed via HPLC.

[4] = test system: U-937 cells; experiment: cells; conditions: Homo sapiens, U-937, U-937
Experimental: as §4
(§7) After following the general procedure above, samples were incubated for 48 h and then 70 μL of Alamar blue was added to each well and left to incubate for an additional 2 h. Cells were assessed for viability via standard methods for Alamar blue quantification.

[5] = test system: REH cell line; experiment: Drug accumulation within REH cells quantified via HPLC; assay type: cell-based, human
Experimental: (§3) Additional cancer cell line: Following the same protocol as outlined above, doxorubicin was evaluated in the REH cancerous cell line. […] As previously observed, when doxorubicin was introduced in the absence of Dex-FeNP cell death increased to ˜40%. […] A trend also observed within the U-937 cell line with doxorubicin.
as §1, §2

[6] = test system: U-937 (histiocytic lymphoma) human cancer cell line
From the text: as §5, §6

[7] = test system: U-937 cells; conditions: nanoparticles plus magnetic field pulses vs control
Experimental: as §4, §7

[8] = test system: REH human cancer cell line (acute lymphocytic leukemia); experiment: Cell death in REH with/without Dex-FeNP, drug and magnetic field pulses (Alamar Blue); assay type: cell-based
Experimental: as §3

COc1cccc2c1C(=O)c1c(O)c3c(c(O)c1C2=O)C[C@@](O)(C(=O)CO)C[C@@H]3O[C@H]1C[C@H](N)[C@H](O)[C@H](C)O1 [Doxorubicin]
cell death ([1]; U-937, doxorubicin at its IC50, absence of Dex-FeNP and magnetic pulses): over 50% | cell death ([1]; U-937, doxorubicin plus Dex-FeNP, no magnetic field): remained similar | cell death ([1]; U-937, doxorubicin plus Dex-FeNP, no magnetic field, listed as dox): ~50% | increase in cell death ([1]; U-937, pre-treated with magnetic nanoparticles, dox, 20 pulses of the magnetic field): ~8% | increase in cell death ([1]; U-937, pre-treated with magnetic nanoparticles, dox, 50 pulses): an increase in cell death | increase in cell death ([1]; U-937, pre-treated with magnetic nanoparticles, dox, 50 pulses, listed as dox): 12% | increase in U-937 cell death ([1]; all three elements present: doxorubicin, Dex-FeNP, magnetic pulses (number of pulses not stated)): 9.1% | increase in cytotoxicity ([1]; human, 48 h, 0.2 μM): ~50% | IC50 ([2]; read-out: Doxorubicin IC50 (μM) in U-937, 48 h, 4,000 cells/well, 384 plate, 50 μL volume, Dextrin Nano-Particle 0 mg/mL): 0.023 ± 0.012 µM | IC50 ([2]; read-out: Doxorubicin IC50 (μM) in U-937, 48 h, 4,000 cells/well, 384 plate, 50 μL volume, Dextrin Nano-Particle 0.000001 mg/mL): 0.022 ± 0.019 µM | IC50 ([2]; read-out: Doxorubicin IC50 (μM) in U-937, 48 h, 4,000 cells/well, 384 plate, 50 μL volume, Dextrin Nano-Particle 0.0001 mg/mL): 0.018 ± 0.011 µM | IC50 ([2]; read-out: Doxorubicin IC50 (μM) in U-937, 48 h, 4,000 cells/well, 384 plate, 50 μL volume, Dextrin Nano-Particle 0.001 mg/mL): 0.018 ± 0.014 µM | IC50 ([2]; read-out: Doxorubicin IC50 (μM) in U-937, 48 h, 4,000 cells/well, 384 plate, 50 μL volume, Dextrin Nano-Particle 0.00125 mg/mL): 0.022 ± 0.008 µM | IC50 ([2]; read-out: Doxorubicin IC50 (μM) in U-937, 48 h, 4,000 cells/well, 384 plate, 50 μL volume, Dextrin Nano-Particle 0.001666 mg/mL): 0.018 ± 0.012 µM | IC50 ([2]; read-out: Doxorubicin IC50 (μM) in U-937, 48 h, 4,000 cells/well, 384 plate, 50 μL volume, Dextrin Nano-Particle 0.0025 mg/mL): 0.018 ± 0.009 µM | IC50 ([2]; read-out: Doxorubicin IC50 (μM) in U-937, 48 h, 4,000 cells/well, 384 plate, 50 μL volume, Dextrin Nano-Particle 0.01 mg/mL): 3.44 ± 0.56 µM | IC50 ([2]; read-out: Doxorubicin IC50 (μM) in U-937, 48 h, 4,000 cells/well, 384 plate, 50 μL volume, Dextrin Nano-Particle 0.25 mg/mL): 4.19 ± 0.95 µM | IC50 ([2]; read-out: Doxorubicin IC50 (μM) in U-937, 48 h, 40,000 cells/well, 48 plate, 700 μL volume, Dextrin Nano-Particle 0 mg/mL): 0.201 ± 0.032 µM | IC50 ([2]; read-out: Doxorubicin IC50 (μM) in U-937, 48 h, 40,000 cells/well, 48 plate, 700 μL volume, Dextrin Nano-Particle 0.000001 mg/mL): 0.2 ± 0.079 µM | IC50 ([2]; read-out: Doxorubicin IC50 (μM) in U-937, 48 h, 40,000 cells/well, 48 plate, 700 μL volume, Dextrin Nano-Particle 0.0001 mg/mL): 0.17 ± 0.024 µM | IC50 ([2]; read-out: Doxorubicin IC50 (μM) in U-937, 48 h, 40,000 cells/well, 48 plate, 700 μL volume, Dextrin Nano-Particle 0.001 mg/mL): 0.19 ± 0.035 µM | IC50 ([2]; read-out: Doxorubicin IC50 (μM) in U-937, 48 h, 40,000 cells/well, 48 plate, 700 μL volume, Dextrin Nano-Particle 0.00125 mg/mL): 0.32 ± 0.022 µM | IC50 ([2]; read-out: Doxorubicin IC50 (μM) in U-937, 48 h, 40,000 cells/well, 48 plate, 700 μL volume, Dextrin Nano-Particle 0.001666 mg/mL): 0.2 ± 0.027 µM | IC50 ([2]; read-out: Doxorubicin IC50 (μM) in U-937, 48 h, 40,000 cells/well, 48 plate, 700 μL volume, Dextrin Nano-Particle 0.0025 mg/mL): 0.2 ± 0.019 µM | IC50 ([2]; read-out: Doxorubicin IC50 (μM) in U-937, 48 h, 40,000 cells/well, 48 plate, 700 μL volume, Dextrin Nano-Particle 0.01 mg/mL): 4.83 ± 0.028 µM | IC50 ([2]; read-out: Doxorubicin IC50 (μM) in U-937, 48 h, 40,000 cells/well, 48 plate, 700 μL volume, Dextrin Nano-Particle 0.25 mg/mL): 6.25 ± 0.208 µM | doxorubicin uptake relative to cells with neither Dex-FeNP nor pulses ([3]; U-937, Dex-FeNP, magnet pulses not applied): no increase in doxorubicin uptake | increase of doxorubicin within cells (uptake), magnetic field pulses vs untreated ([3]; U-937 with Dex-FeNP): 75.2% | increase of doxorubicin within cells (uptake), magnetic field pulses vs untreated ([3]; U-937 with Dex-FeNP, listed as doxorubicin): 75.2% and 75% | doxorubicin accumulation difference between the two systems at later time points ([3]; U-937 with Dex-FeNP, with vs without pulses, later than 2 h): lower than 75% | IC50 ([4]; Dex-FeNP (0.0025 mg/mL) alone, no magnetic field pulses): 273 nM | IC50 ([4]; Dex-FeNP (0.0025 mg/mL) plus 20 magnetic field pulses (combinational strategy)): 165 nM | increase in accumulation of doxorubicin ([5]; Dex-FeNP and doxorubicin, 20 magnetic field pulses, 2 h period): 38.7% | doxorubicin accumulation ([5]; absence of Dex-FeN and magnetic field): no increase in doxorubicin accumulation | IC50 of doxorubicin relative to the doxorubicin control alone ([6]; Dex-FeNP 0.0025 mg/mL (dilution 1/400), both cell density experiments): returned to normal levels within the margins of standard deviation | IC50 of doxorubicin relative to the doxorubicin control alone ([6]; higher concentrations of Dex-FeNP (0.25 and 0.01 mg/mL)): increased in value significantly | enhancement of the effects of the anti-cancer agent by the methodology [7]: up to 65% | increase in cell death ([8]; Dex-FeNP and doxorubicin in the presence of the magnetic field (20 pulses)): ~8% | cell death ([8]; doxorubicin in the absence of Dex-FeNP, 20 magnetic field pulses): ~40%

S=c1nc[nH]c2nc[nH]c12 [6TP, 6-thiopurine]
increase in cell death ([1]; U-937 (printed U-397), Dex-FeNP and 6TP in the presence of magnetic field (20 pulses), 48 h): 3% | increase in accumulation of 6TP ([3]; U-937, Dex-FeNP plus 20 MF pulses, 2 h period): 21.4%
